In patent US4898940A (priority 1989, dated 1990):
≈ marks a conversion by molar mass, not a printed value.

What was measured:
Bacillus subtilis = assay: MIC, serial agar dilution (nutrient agar); assay type: cell-based; conditions: Bacillus subtilis PCI-219
From the text: (§1) Nutrient agar (Eiken) was used for bacteria and Sabouraud dextrose agar (Difco) for fungi. The inoculum size was adjusted to 10^4 CFU/ml for bacteria and 10^5 -10^7 CFU/ml for fungi.

Enterobacter cloacae = assay: MIC, serial agar dilution (nutrient agar); assay type: cell-based; conditions: Enterobacter cloacae A9659
From the text: as §1

Escherichia coli = assay: MIC, serial agar dilution (nutrient agar); assay type: cell-based; conditions: Escherichia coli NIHJ
From the text: as §1

Klebsiella pneumoniae = assay: MIC, serial agar dilution (nutrient agar); assay type: cell-based; conditions: Klebsiella pneumoniae D-11
From the text: as §1

Micrococcus luteus = assay: MIC, serial agar dilution (nutrient agar); assay type: cell-based; conditions: Micrococcus luteus PCI-1001
From the text: as §1

Morganella morganii = assay: MIC, serial agar dilution (nutrient agar); assay type: cell-based; conditions: Morganella morganii A9553
From the text: as §1

Proteus mirabilis = assay: MIC, serial agar dilution (nutrient agar); assay type: cell-based; conditions: Proteus mirabilis A9554
From the text: as §1

Proteus vulgaris = assay: MIC, serial agar dilution (nutrient agar); assay type: cell-based; conditions: Proteus vulgaris A9436
From the text: as §1

Pseudomonas aeruginosa = assay: MIC, serial agar dilution (nutrient agar); assay type: cell-based; conditions: Pseudomonas aeruginosa A9930
From the text: as §1

Serratia marcescens = assay: MIC, serial agar dilution (nutrient agar); assay type: cell-based; conditions: Serratia marcescens A20222
From the text: as §1

Staphylococcus aureus = assay: MIC, serial agar dilution (nutrient agar); assay type: cell-based
From the text: as §1

[1] = tested on: Staphylococcus epidermidis; assay: MIC, serial agar dilution (nutrient agar); assay type: cell-based
From the text: as §1

Streptococcus faecalis = assay: MIC, serial agar dilution (nutrient agar); assay type: cell-based; conditions: Streptococcus faecalis A9612
From the text: as §1

Aspergillus flavus = assay: MIC, serial agar dilution (Sabouraud dextrose agar); assay type: cell-based; conditions: Aspergillus flavus FA 21436
From the text: as §1

Aspergillus fumigatus = assay: as above; assay type: cell-based
From the text: as §1

Blastomyces dermaditis = assay: as above; assay type: cell-based; conditions: Blastomyces dermaditis IFO 8144
From the text: as §1

Candida albicans = assay: as above; assay type: cell-based
From the text: as §1

Cryptococcus neoformans = assay: as above; assay type: cell-based
From the text: as §1

Fusarium moniliforme = assay: as above; assay type: cell-based; conditions: Fusarium moniliforme A 2284
From the text: as §1

Mucor spinosus = assay: as above; assay type: cell-based; conditions: Mucor spinosus IFO 5317
From the text: as §1

Petriellidium boydii = assay: as above; assay type: cell-based; conditions: Petriellidium boydii IFO 8073
From the text: as §1

Sporothrix schenckii = assay: as above; assay type: cell-based; conditions: Sporothrix schenckii IFO 8158
From the text: as §1

[2] = tested on: Trichophyton mentagrophytes; assay: as above; assay type: cell-based
From the text: as §1

Piricularia oryzae = assay type: cell-based; conditions: Piricularia oryzae D 91; Sabouraud dextrose agar
[3] = tested on: Lymphocytic leukemia P388; assay: Antitumor activity against P388 leukemia in mice; assay type: in vivo, CDF1 and BDF1 mice; conditions: for T/C % of MST: P388 leukemia; for antitumor activity against P388 leukemia (in words): ip
Experimental: (§2) Lymphocytic leukemia P388 (CDF1 and BDF1 mice) and lymphoid leukemia L1210 (BDF1 mice) were inoculated by intraperitoneal injection of 0.8 ml diluted ascitic fluid containing 10^6 and 10^5 cells per mouse, respectively. Melanotic melanoma B16 (BDF1 mice) were implanted 0.5 ml of a 10% tumor brei intraperitoneally. Test materials were dissolved in 0.9% saline containing 10% dimethyl sulfoxide and graded doses of them were administered to mice intraperitoneally 24 hours after tumor implantation. Either olivomycin (NSC 38270) or mitomycin C was comparatively tested as a reference compound in the experiments.
Values for percentage ratios of 125 and above indicate significant antitumor effect.

lymphoid leukemia L1210 = assay: Antitumor activity against L1210 leukemia in mice; assay type: in vivo, BDF1 mice; conditions: for T/C % of MST: L1210 leukemia, BDF1 mice
Experimental: as §2

Melanotic melanoma B16 = assay: Antitumor activity against B16 melanoma in mice; assay type: in vivo, BDF1 mice; conditions: for T/C % of MST: B16 melanoma, BDF1 mice
Experimental: as §2

Solubility in solvents = assay type: physicochemical
[4] = tested on: gram-positive and gram-negative bacteria; assay: In vitro antibacterial activity; assay type: cell-based; conditions: at 50 mcg/ml
From the text: as §1

[5] = tested on: pathogenic fungi such as Candida albicans, Cryptococcus neoformans, Aspergillus fumigatus, Trichlophyton mentagrophytes and Mucor spinosus; assay: In vitro antifungal activity; assay type: cell-based; conditions: clinically important pathogenic fungi
From the text: as §1

[6] = Acute toxicity, single intraperitoneal administration; conditions: male ddY mice

SMILES: CCCCCCC/C=C/C=C/C(=O)N[C@H](C(=O)N[C@H]1C[C@@H](O)CCNC(=O)/C=C/[C@H](C)NC1=O)[C@@H](C)O [BU-2867T A]
- MIC (Bacillus subtilis): > 50 µg/mL
- MIC (Enterobacter cloacae): > 50 µg/mL
- MIC (Escherichia coli): > 50 µg/mL
- MIC (Klebsiella pneumoniae): > 50 µg/mL
- MIC (Micrococcus luteus): > 50 µg/mL
- MIC (Morganella morganii): > 50 µg/mL
- MIC (Proteus mirabilis): > 50 µg/mL
- MIC (Proteus vulgaris): > 50 µg/mL
- MIC (Pseudomonas aeruginosa): > 50 µg/mL
- MIC (Serratia marcescens): > 50 µg/mL
- MIC (Staphylococcus aureus; Staphyloccus aureus Bx-1633): > 50 µg/mL
- MIC (Staphylococcus aureus; Staphylococcus aureus 209P): > 50 µg/mL
- MIC (Staphylococcus aureus; Staphylococcus aureus Smith): > 50 µg/mL
- MIC ([1]; Staphylococcus epidermidis A22152): > 50 µg/mL
- MIC ([1]; Staphylococcus epidermidis D153): > 50 µg/mL
- MIC (Streptococcus faecalis): > 50 µg/mL
- MIC (Aspergillus flavus): 25 µg/mL (≈ 48 µM)
- MIC (Aspergillus fumigatus; Aspergillus fumigatus IAM 2034): 1.6 µg/mL (≈ 3.07 µM)
- MIC (Aspergillus fumigatus; Aspergillus fumigatus IAM 2530): 1.6 µg/mL (≈ 3.07 µM)
- MIC (Blastomyces dermaditis): 50 µg/mL (≈ 96 µM)
- MIC (Candida albicans; Candida albicans A 9540): 1.6 µg/mL (≈ 3.07 µM)
- MIC (Candida albicans; Candida albicans IAM 4888): 3.1 µg/mL (≈ 5.95 µM)
- MIC (Cryptococcus neoformans; Cryptococcus neoformans D 49): 25 µg/mL (≈ 48 µM)
- MIC (Cryptococcus neoformans; Cryptococcus neoformans IAM 4514): 25 µg/mL (≈ 48 µM)
- MIC (Fusarium moniliforme): > 50 µg/mL
- MIC (Mucor spinosus): 1.6 µg/mL (≈ 3.07 µM)
- MIC (Petriellidium boydii): > 50 µg/mL
- MIC (Sporothrix schenckii): > 50 µg/mL
- MIC ([2]; Trichophyton mentagrophytes #4329): 25 µg/mL (≈ 48 µM)
- MIC ([2]; Trichophyton mentagrophytes D 155): 25 µg/mL (≈ 48 µM)
- MIC (Piricularia oryzae): > 50 µg/mL
- T/C % of MST ([3]; 0.031 mg/kg/day ip, schedule 2 (once daily on days 1 through 9)): 109%
- T/C % of MST ([3]; 0.063 mg/kg/day ip, schedule 2 (once daily on days 1 through 9)): 136%
- T/C % of MST ([3]; 0.1 mg/kg/day ip, schedule 1 (once daily on days 1, 4 and 7)): 120%
- T/C % of MST ([3]; 0.13 mg/kg/day ip, schedule 2 (once daily on days 1 through 9)): 147%
- T/C % of MST ([3]; 0.25 mg/kg/day ip, schedule 2 (once daily on days 1 through 9)): 156%
- T/C % of MST ([3]; 0.3 mg/kg/day ip, schedule 1 (once daily on days 1, 4 and 7)): 130%
- T/C % of MST ([3]; 0.5 mg/kg/day ip, schedule 2 (once daily on days 1 through 9)): 186%
- T/C % of MST ([3]; 1 mg/kg/day ip, schedule 1 (once daily on days 1, 4 and 7)): 140%
- T/C % of MST ([3]; 1 mg/kg/day ip, schedule 2 (once daily on days 1 through 9)): 228%
- T/C % of MST ([3]; 2 mg/kg/day ip, schedule 2 (once daily on days 1 through 9)): 67%
- antitumor activity against P388 leukemia (in words) ([3]; treatment schedule 1 (once daily on days 1, 4 and 7)): showed antitumor activity
- antitumor activity against P388 leukemia (in words) ([3]; treatment schedule 2 (once daily on days 1 through 9)): highly active
- T/C % of MST (lymphoid leukemia L1210; 0.063 mg/kg/day ip): 106%
- T/C % of MST (lymphoid leukemia L1210; 0.13 mg/kg/day ip): 118%
- T/C % of MST (lymphoid leukemia L1210; 0.25 mg/kg/day ip): 118%
- T/C % of MST (lymphoid leukemia L1210; 0.5 mg/kg/day ip): 129%
- antitumor activity against L1210 leukemia (in words) (lymphoid leukemia L1210; compared with P388): less active
- T/C % of MST (Melanotic melanoma B16; 0.25 mg/kg/day ip): 113%
- T/C % of MST (Melanotic melanoma B16; 0.5 mg/kg/day ip): 116%
- T/C % of MST (Melanotic melanoma B16; 1 mg/kg/day ip): 125%
- T/C % of MST (Melanotic melanoma B16; 2 mg/kg/day ip): Tox.
- antitumor activity against B16 melanoma (in words) (Melanotic melanoma B16; compared with P388): less active
- solubility in chloroform, acetonitrile and ethyl acetate (Solubility in solvents): slightly soluble
- solubility in methanol, ethanol, n-butanol and dimethyl sulfoxide (Solubility in solvents): readily soluble
- solubility in n-hexane and water (Solubility in solvents): practically insoluble
- growth inhibition of gram-positive and gram-negative bacteria (in words) [4]: did not inhibit the growth
- antifungal activity (in words) [5]: somewhat less active than component C
- LD50 [6]: 8.1 mg/kg
